Each block holds one compound with its values, some of them ahead of it.
Key:
[1] = Urine odor panel ranking, dye powders in urine, 1.6 millimolar (Example 6); set-up: species or system human; conditions: 1.6 millimolar dye in urine, 24 hours, 37° C.
Method: (§1) Qualitative odor reduction was also assessed against common odors, such as garlic and urine. Specifically, panelists assessed odorant-containing jars by carefully unscrewing, and then raising the lid of each jar in a controlled manner, such that the odor was not diluted by the ambient air. The jars were wrapped and coded to ensure that the sample identity was unknown.
The effectiveness of various dyes in reducing urine odor was compared. The dyes chosen for this example were powders of Acid Blue 25, Acid Blue 45, Acid Blue 129, FD&C Blue No. 1 (a triarylmethane dye), Acid Green 27, Acid Green 41, and Mordant Violet 5 (Alizarin Violet 3R) (commercially available from Sigma-Aldrich Chemical Co., Inc. of St. Louis, Mo.), as well as D&C Green No. 5 (commercially available from Noveon Hilton Davis, Inc. of Cincinnati, Ohio). Human female urine was initially collected and pooled by a nurse on staff at Kimberly-Clark Corporation. […] Powders of the aforementioned dyes were weighed and placed into the mason jars containing 50 milliliters of urine so that the final concentration of the dye powder was 1.6 millimolar (equivalent to 0.1 wt. %). […] A score of “10” was assigned to the most malodorous jar and a score of “1” was assigned to the least malodorous jar.

[2] = Urine odor and secondary odor panel ranking, dye powders in urine, 8 millimolar (Example 7); set-up: species or system human; conditions: for Secondary Odor Ranking: scale 1 to 5, 5 extremely unpleasant, individual panelists' scores; for Average Urine Odor Ranking (with statistical corrections), Avg. Score: ignoring statistical anomalies
Method: as §1
The effectiveness of various dyes in reducing urine odor was compared. […] Human female urine was initially collected and pooled by a nurse on staff at Kimberly-Clark Corporation. The pooled urine was added to mason jars in 50-milliliter aliquots using an automated pipette aid. Powders of the aforementioned dyes (commercially available from Sigma-Aldrich Chemical Co., Inc. of St. Louis, Mo. and Noveon Hilton Davis, Inc. of Cincinnati, Ohio) were weighed and placed into the mason jars containing 50 milliliters of urine so that the final concentration of the dye powder was 8 millimolar (equivalent to 0.5 wt. %). The mason jars were placed in an incubator overnight at 37° C.
To aid in the assessment of the dyes, the mason jars were divided into two groups for a morning assessment, and the best of both groups were compared in an afternoon assessment (after a total of 24 hours). In addition to ranking the jars from least to most malodorous (on a scale from 1 to 7, with 7 being the most malodors), panelists were also asked to judge whether there were secondary (non-urine) odors present and, if so, the extent that the secondary odors were unpleasant (on a scale from 1 to 5, with 5 being extremely unpleasant).
In this assessment, panelists were given instructions to rank the least malodorous jar as “1” and the most malodorous jar as “10,” remaining free to rank the other jars between 2-9.

[3] = Redox potential (redox potentiometry); format: physicochemical; conditions: compared with hydrogen (set at 0)
Text: The ability of quinone compounds to accept electrons from another substance (i.e., be reduced) may be quantified using a technique known as redox potentiometry. Redox potentiometry is a technique that measures (in volts) the affinity of a substance for electrons—its electronegativity—compared with hydrogen (which is set at 0). Substances more strongly electronegative than (i.e., capable of oxidizing) hydrogen have positive redox potentials. Substances less electronegative than (i.e., capable of reducing) hydrogen have negative redox potentials. The greater the difference between the redox potentials of two substances (ΔE), the greater the vigor with which electrons will flow spontaneously from the less positive to the more positive (more electronegative) substance. As is well known in the art, redox potential may be measured using any of a variety of commercially available meters, such as an Oxidation Reduction Potential (ORP) tester commercially available from Hanna Instruments, Inc. of Woonsocket, R.I. The redox potential of the quinone compounds may, for instance, be less than about −50 millivolts (mV), in some embodiments less than about −150 mV, in some embodiments less than about −300 mV, and in some embodiments, less than about −500 mV. Although not always the case, the redox potential may vary based on the number and location of functional groups, such as sulfonic acid, on the quinone structure. For example, 2-sulfonic acid anthraquinone has a redox potential of −380 mV; 2,6-disulfonic acid anthraquinone has a redox potential of −325 mV; and 2,7-disulfonic acid anthraquinone has a redox potential of −313 mV. Likewise, 2-sulfonic acid naphthaquinone has a redox potential of −60 mV. The use of other functional groups may also have an affect on the ultimate redox potential of the compound. For example, Acid Blue 25, which also contains amino- and aramid functional groups, has a redox potential of −605 mV.

[4] = Urine odor panel ranking, dye-coated Poise pads without SN-AK (Example 8); set-up: species or system human
Method: as §1
Specifically, Acid Green 25, Acid Green 41, Acid Blue 129, and D&C Green No. 5 were tested. Powders of the aforementioned dyes (commercially available from Sigma-Aldrich Chemical Co., Inc. of St. Louis, Mo. and Noveon Hilton Davis, Inc. of Cincinnati, Ohio) were dissolved in water so that the concentration of the dye was 8 millimolar (equivalent to 0.5 wt. %). Samples of tissue wrap were created by cutting 9″×6″ sheets from a roll of tissue (1 ply white cellulose wrap sheet having a basis weight of 16.6 grams per square meter) were weighed, oven-dried overnight at 90° C., and weighed again the next day to calculate the amount of residual water in each wrap. The wraps were then dipped into a respective dye solution and hung to dry overnight, after which they were weighed again. The treated wraps were then rinsed in deionized water to remove any unbound dye and hung again to dry overnight. After weighing the treated wraps, they were once again oven-dried overnight at 90° C. and weighed to determine the dry add-on percentages ([…]). The add-on percentage for each sample was approximately 1.6 wt. %.
Two different sets of Poise® pads (commercially available from Kimberly-Clark Corp.) were tested. The first set of dye-coated tissue wraps (without SN-AK) was inserted around the pledgette area of the Poise® pads. The Poise® pads were cut open and the tissue wrap surrounding the pledgette carefully removed and replaced with dye-coated tissue wrap. The second set of dye-coated tissue wraps (without SN-AK) used dye coatings on the top of the pad (rather than inside). These pads were constructed by spreading the solution over the top of each pad. To prevent the superabsorbent area of the pad from soaking up the solution, the pads were cut open prior to coating and a layer of plastic wrap was placed between the top layer of the pad and the superabsorbent core. A pad that was cut open, but coated only with water on top, was used as a control. All pads were dried at room temperature overnight before placing them in mason jars for testing. For control purposes, a Poise® pad was also tested that was cut open, but retained its original tissue wrap. In addition, Serenity® Night & Day™ incontinence pads, which are commercially available from SCA Incontinence Care of Eddystone, Pa. and said to employ OdaSorb Plus™ to reduce odor, were also used for comparison.
Fresh human female urine was then pooled, and 50-milliliter aliquots were applied to the pads using a pipette. The mason jars were placed in a 37° C. incubator overnight for assessment the next day. […] Panelists were again asked to rank any secondary odors for unpleasantness on a scale of 1-5.

[5] = Urine odor panel ranking, dye powders in urine, 8 millimolar (Example 5); set-up: species or system human; conditions: 8 millimolar dye in urine; for urine malodor reduction (panel): 6 and 24 hours
Method: as §1, with “unknown. The effectiveness of various quinone dyes in reducing urine odor was compared. Human female urine was initially collected and pooled by a nurse on staff at Kimberly-Clark Corporation.” for “unknown.”

[6] = First Grouping, morning assessment, 8 millimolar, 7 most malodorous
[7] = First Grouping, scale 1 to 7, 7 most malodorous
[8] = After 24 Hours, top performers of both groupings, 1 least, 10 most malodorous
[9] = after 24 hours, top performers, 1 least, 10 most malodorous
[10] = Second Grouping, morning assessment, 8 millimolar, higher = more malodorous
[11] = 1st set (tissue-wrap coating), After 30 Hours
[12] = After 6 Hours, 10 most, 1 least malodorous
[13] = After 24 Hours, 10 most, 1 least malodorous

SMILES: Cc1ccc(Nc2cccc3c2C(=O)c2cccc(Nc4ccc(C)cc4S(=O)(=O)[O-])c2C3=O)c(S(=O)(=O)[O-])c1.[Na+].[Na+]
urine odor reduction (panel) [1]: did not perform as well in reducing odor as D&C Green No. 5
Urine Odor Ranking (number of panelists): ranking 4 [2, 6]: 1 number of panelists
Urine Odor Ranking (number of panelists): ranking 6 [2, 6]: 3 number of panelists
Urine Odor Ranking (number of panelists): ranking 7 [2, 6]: 1 number of panelists
Secondary Odor Ranking ([2]; First Grouping): 1
Average Urine Odor Ranking, Avg. Score [2, 7]: 5.8

SMILES: O=C1c2ccc(S(=O)(=O)O)cc2C(=O)c2ccc(S(=O)(=O)O)cc21 [2,6-disulfonic acid anthraquinone]
redox potential [3]: −325 mV

SMILES: O=C1c2ccc(S(=O)(=O)O)cc2C(=O)c2cc(S(=O)(=O)O)ccc21 [2,7-disulfonic acid anthraquinone]
redox potential [3]: −313 mV

SMILES: O=C1c2ccccc2C(=O)c2cc(S(=O)(=O)O)ccc21 [2-sulfonic acid anthraquinone]
redox potential [3]: −380 mV

redox potential [3]: −60 mV
SMILES: O=C1C=C(S(=O)(=O)O)C(=O)c2ccccc21 [2-sulfonic acid naphthaquinone]

SMILES: Nc1c(S(=O)(=O)[O-])cc(Nc2ccccc2)c2c1C(=O)c1ccccc1C2=O.[Na+] [Acid Blue 25]
Urine Odor Ranking (number of panelists): ranking 4 [2, 8]: 1 number of panelists
Urine Odor Ranking (number of panelists): ranking 7 [2, 8]: 1 number of panelists
Urine Odor Ranking (number of panelists): ranking 9 [2, 8]: 2 number of panelists
Urine Odor Ranking (number of panelists): ranking 10 [2, 8]: 1 number of panelists
Secondary Odor Ranking ([2]; After 24 Hours): 4
Urine Odor Ranking (number of panelists): ranking 1 [2, 6]: 1 number of panelists
Urine Odor Ranking (number of panelists): ranking 2 [2, 6]: 1 number of panelists
Urine Odor Ranking (number of panelists): ranking 3 [2, 6]: 1 number of panelists
Urine Odor Ranking (number of panelists): ranking 4 [2, 6]: 1 number of panelists
Urine Odor Ranking (number of panelists): ranking 5 [2, 6]: 1 number of panelists
Secondary Odor Ranking ([2]; First Grouping): 2
Average Urine Odor Ranking, Avg. Score [2, 7]: 3.0
Average Urine Odor Ranking, Avg. Score [2, 9]: 6.8
Average Urine Odor Ranking (with statistical corrections), Avg. Score ([2]; after 24 hours, top performers): 8.8
urine odor reduction (panel) ([2]; first grouping): functioned effectively to reduce odor
redox potential [3]: −605 mV

SMILES: Cc1cc(C)c(Nc2cc(S(=O)(=O)[O-])c(N)c3c2C(=O)c2ccccc2C3=O)c(C)c1.[Na+] [Acid Blue 129]
Urine Odor Ranking (number of panelists): ranking 1 [2, 8]: 1 number of panelists
Urine Odor Ranking (number of panelists): ranking 3 [2, 8]: 1 number of panelists
Urine Odor Ranking (number of panelists): ranking 4 [2, 8]: 1 number of panelists
Urine Odor Ranking (number of panelists): ranking 5 [2, 8]: 1 number of panelists
Urine Odor Ranking (number of panelists): ranking 6 [2, 8]: 1 number of panelists
Average Urine Odor Ranking, Avg. Score ([2]; Second Grouping): 1.8
Urine Odor Ranking (number of panelists): ranking 1 [2, 10]: 3 number of panelists
Urine Odor Ranking (number of panelists): ranking 3 [2, 10]: 2 number of panelists
urine odor reduction (panel) ([2]; after 24 hours, top performers of both groupings): achieved the best odor reduction
Average Urine Odor Ranking, Avg. Score [2, 9]: 3.8
Average Urine Odor Ranking (with statistical corrections), Avg. Score ([2]; after 24 hours, top performers): 3.8
Urine Odor Ranking (number of panelists): ranking 1 [4, 11]: 1 number of panelists
Urine Odor Ranking (number of panelists): ranking 3 [4, 11]: 1 number of panelists
Urine Odor Ranking (number of panelists): ranking 4 [4, 11]: 2 number of panelists
Average Urine Odor Ranking, Avg. Score ([4]; 1st set (tissue-wrap coating), final pooled assessment): 3.00
urine odor reduction (panel), assessment within set ([4]; first set of pads (dye-coated tissue wrap around pledgette), overnight 37° C.): performed best for the first set of pads
overall urine odor control performance (panel) ([4]; tissue-wrap coating, final pooled assessment): performed very well
urine malodor reduction (panel) [5]: functioned effectively in reducing urine malodor
Avg. Ranking (odor) [5, 12]: 1.6
Ranking (number of panelists): ranking 1 [5, 12]: 4 number of panelists
Ranking (number of panelists): ranking 4 [5, 12]: 1 number of panelists
Avg. Ranking (odor) [5, 13]: 1.3
Ranking (number of panelists): ranking 1 [5, 13]: 5 number of panelists
Ranking (number of panelists): ranking 3 [5, 13]: 1 number of panelists

SMILES: Cc1ccc(Nc2ccc(Nc3ccc(C)cc3S(=O)(=O)[O-])c3c2C(=O)c2ccccc2C3=O)c(S(=O)(=O)[O-])c1.[Na+].[Na+] [D&C Green No. 5]
Urine Odor Ranking (number of panelists): ranking 2 [2, 8]: 1 number of panelists
Urine Odor Ranking (number of panelists): ranking 4 [2, 8]: 1 number of panelists
Urine Odor Ranking (number of panelists): ranking 7 [2, 8]: 2 number of panelists
Urine Odor Ranking (number of panelists): ranking 10 [2, 8]: 1 number of panelists
Secondary Odor Ranking ([2]; After 24 Hours): 4
urine odor reduction (panel) ([2]; Second Grouping): did not perform as well compared to the other dyes
Urine Odor Ranking (number of panelists): ranking 4 [2, 10]: 3 number of panelists
Urine Odor Ranking (number of panelists): ranking 5 [2, 10]: 2 number of panelists
Secondary Odor Ranking ([2]; Second Grouping): 4
Average Urine Odor Ranking, Avg. Score [2, 9]: 6.0
Average Urine Odor Ranking (with statistical corrections), Avg. Score ([2]; after 24 hours, top performers): 7.0
urine malodor reduction (panel) [5]: functioned effectively in reducing urine malodor
Avg. Ranking (odor) [5, 12]: 3.0
Ranking (number of panelists): ranking 1 [5, 12]: 1 number of panelists
Ranking (number of panelists): ranking 3 [5, 12]: 3 number of panelists
Ranking (number of panelists): ranking 5 [5, 12]: 1 number of panelists
Avg. Ranking (odor) [5, 13]: 5.2
Ranking (number of panelists): ranking 4 [5, 13]: 3 number of panelists
Ranking (number of panelists): ranking 5 [5, 13]: 1 number of panelists
Ranking (number of panelists): ranking 7 [5, 13]: 2 number of panelists

Reference: patent US8409618B2, “Odor-reducing quinone compounds” (Kimberly-Clark Worldwide, Inc., priority 2002, dated 2013)
